This passage reports IC50 results from patent US20240182481A1 (Tango Therapeutics, Inc., priority 2021, published 2024).

SMILES strings stand for the structures. Read-outs that look alike come from different tables or passages of the source. Bounds are passed on as bounds.

Experiment [1] concerns monoubiquitinated PCNA. Nature of the experiment: AlphaLISA assay measuring monoubiquitinated PCNA in MDA-MB-436. The experiment is classed as cell-based. The settings on record: Homo sapiens, read-out: Alpha LISA IC50. The source says: Table 1 also indicates IC50 values for exemplary compounds in an AlphaLISA assay measuring monoubiquitinated PCNA in a BRCA1 mutant cell line (MDA-MB-436; column 7).
In general terms: Alpha assays give light when donor and acceptor beads are brought close together.

Experiment [2] deals with HCC1954 (BRCA1 WT) cell line. In words: Viability assay in BRCA1 WT cell line HCC1954. As to conditions: Homo sapiens, read-out: HCC 1954 IC50 rel IC50. The experiment is classed as cell-based. An excerpt:
(§1) Table 1 also indicates IC50 values in a viability assay for a non-isogenic pair of BRCA1 mutant (column 5—MDA-MB-436) and BRCA1 WT (column 6—HCC1954) cell lines. These values indicate the effect of treatment with compound on cell survival.

The subject of experiment [3] is MDA-MB-436 (BRCA1 mutant) cell line. In words: Viability assay in BRCA1 mutant cell line MDA-MB-436. In kind it is cell-based. As to conditions: Homo sapiens, BRCA1 mutant MDA-MB-436, read-out: MDA-MB-436 rel IC50.
Description: as §1

Experiment [4] deals with USP1-UAF1 (Homo sapiens, UniProt O94782). Nature of the experiment: Ubiquitin Rhodamine assay for USP1-UAF1 activity. In kind it is biochemical. The protocol: Certain compounds of the disclosure were assessed for USP1-UAF1 activity in a Ubiquitin Rhodamine assay as described in Example 135.
USP1-UAF1, sequence (O94782 whole entry): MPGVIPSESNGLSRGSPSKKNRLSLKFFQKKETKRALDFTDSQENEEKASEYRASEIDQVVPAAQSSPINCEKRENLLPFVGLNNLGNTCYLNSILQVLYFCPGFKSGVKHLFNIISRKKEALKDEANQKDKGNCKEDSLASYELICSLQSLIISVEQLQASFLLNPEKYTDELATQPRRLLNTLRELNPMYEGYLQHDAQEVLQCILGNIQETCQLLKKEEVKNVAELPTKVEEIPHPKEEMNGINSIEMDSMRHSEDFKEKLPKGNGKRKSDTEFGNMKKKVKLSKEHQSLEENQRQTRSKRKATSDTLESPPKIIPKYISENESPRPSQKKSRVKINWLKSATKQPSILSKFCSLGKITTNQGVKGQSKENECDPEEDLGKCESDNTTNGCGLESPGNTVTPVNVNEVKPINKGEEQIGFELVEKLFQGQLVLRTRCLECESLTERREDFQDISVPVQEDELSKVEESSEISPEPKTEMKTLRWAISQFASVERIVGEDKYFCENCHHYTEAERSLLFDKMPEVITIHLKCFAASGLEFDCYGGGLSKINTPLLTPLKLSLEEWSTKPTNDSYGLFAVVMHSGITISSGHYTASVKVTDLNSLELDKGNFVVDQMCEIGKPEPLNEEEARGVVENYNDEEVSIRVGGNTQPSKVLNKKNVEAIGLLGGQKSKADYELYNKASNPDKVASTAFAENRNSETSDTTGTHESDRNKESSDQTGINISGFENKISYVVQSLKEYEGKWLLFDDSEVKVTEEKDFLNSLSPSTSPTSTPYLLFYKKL
USP1-UAF1, sequence (Q8TAF3 whole entry partner): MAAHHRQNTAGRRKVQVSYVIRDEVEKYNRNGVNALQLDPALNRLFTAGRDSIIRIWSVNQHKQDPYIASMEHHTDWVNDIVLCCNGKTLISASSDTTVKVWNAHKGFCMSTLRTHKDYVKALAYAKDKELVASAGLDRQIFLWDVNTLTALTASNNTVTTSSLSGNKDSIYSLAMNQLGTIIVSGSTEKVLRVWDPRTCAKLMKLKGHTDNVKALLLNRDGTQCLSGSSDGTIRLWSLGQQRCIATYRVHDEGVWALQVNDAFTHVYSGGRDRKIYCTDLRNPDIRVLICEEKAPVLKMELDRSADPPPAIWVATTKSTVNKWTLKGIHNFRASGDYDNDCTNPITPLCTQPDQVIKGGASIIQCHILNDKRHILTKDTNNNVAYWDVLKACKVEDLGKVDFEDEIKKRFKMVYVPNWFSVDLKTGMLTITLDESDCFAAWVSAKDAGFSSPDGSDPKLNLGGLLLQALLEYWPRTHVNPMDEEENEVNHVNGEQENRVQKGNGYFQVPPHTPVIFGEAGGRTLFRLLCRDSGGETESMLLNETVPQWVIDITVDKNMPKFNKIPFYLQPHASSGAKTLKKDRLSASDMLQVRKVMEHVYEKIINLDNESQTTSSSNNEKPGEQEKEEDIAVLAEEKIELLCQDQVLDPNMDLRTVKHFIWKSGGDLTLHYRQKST

One may read the IC50 as the concentration needed to halve the response being measured. For the compound `CCOc1ncnc(C2CC2)c1-c1ncc2[nH]nc(Cc3ccc(-c4nc(C(F)(F)F)cn4C)cc3)c2n1` [Compound 126, 5-(4-cyclopropyl-6-ethoxy-pyrimidin-5-yl)-3-[[4-[1-methyl-4-(trifluoromethyl)imidazol-2-yl]phenyl]methyl]-1H-pyrazolo[4,3-d]pyrimidine], the IC50 was less than 100 nM in experiment [1]; 250 to 10000 nM in experiment [2]; less than 100 nM in experiment [3] (MDA-MB-436, viability); less than 30 nM in experiment [4].
On to `CN1CC(n2cc(C(F)(F)F)nc2-c2ccc(Cc3c[nH]c4cnc(-c5cccnc5OC(F)F)nc34)cc2)C1` [Compound 20, 2-[2-(difluoromethoxy)-3-pyridyl]-7-[[4-[1-(1-methylazetidin-3-yl)-4-(trifluoromethyl)imidazol-2-yl]phenyl]methyl]-5H-pyrrolo[3,2-d]pyrimidine], for which the IC50 in experiment [1] was less than 100 nM; in experiment [2] it was no less than 10000 nM; in experiment [3] (MDA-MB-436, viability), 100 to 250 nM; in experiment [4], 100 to 10000 nM.
The matching figures for `COc1ncnc(C2CC2)c1-c1ncc2[nH]nc(Cc3ccc(-c4nc(C(F)(F)F)cn4C4COC4)cc3)c2n1` [Compound 133, 5-(4-cyclopropyl-6-methoxy-pyrimidin-5-yl)-3-[[4-[1-(oxetan-3-yl)-4-(trifluoromethyl)imidazol-2-yl]phenyl]methyl]-1H-pyrazolo[4,3-d]pyrimidine]: 100 to 250 nM, no less than 10000 nM, less than 100 nM and 30 to 100 nM.
For `COc1ncnc(C(C)(C)C)c1-c1ncc2[nH]cc(Cc3ccc(-c4nc(C(F)(F)F)cn4C)cc3)c2n1` [Compound 124, 2-(4-tert-butyl-6-methoxy-pyrimidin-5-yl)-7-[[4-[1-methyl-4-(trifluoromethyl)imidazol-2-yl]phenyl]methyl]-5H-pyrrolo[3,2-d]pyrimidine], the IC50 in experiment [1] is 100 to 250 nM; in experiment [2] it was no less than 10000 nM; in experiment [3] (MDA-MB-436, viability), less than 100 nM; in experiment [4], 30 to 100 nM.
The matching figures for `CC(C)n1cc(C(F)(F)F)nc1-c1ccc(Cc2n[nH]c3cnc(-c4c(OC(F)F)ncnc4C4CC4)nc23)cc1` [Compound 137, 5-(4-cyclopropyl-6-(difluoromethoxy)pyrimidin-5-yl)-3-(4-(1-isopropyl-4-(trifluoromethyl)-1H-imidazol-2-yl)benzyl)-1H-pyrazolo[4,3-d]pyrimidine]: less than 100 nM, 250 to 10000 nM, less than 100 nM and less than 30 nM.
For the compound `CC(C)Oc1ncnc(C2CC2)c1-c1ncc2[nH]cc(Cc3ccc(-c4nc(C(F)(F)F)cn4C)cc3)c2n1` [Compound 118, 2-(4-cyclopropyl-6-isopropoxy-pyrimidin-5-yl)-7-[[4-[1-methyl-4-(trifluoromethyl)imidazol-2-yl]phenyl]methyl]-5H-pyrrolo[3,2-d]pyrimidine], the IC50 in experiment [1] is less than 100 nM; in experiment [2] it was no less than 10000 nM; in experiment [3] (MDA-MB-436, viability), less than 100 nM; in experiment [4] it was less than 30 nM.
As for `COc1ncnc(OC)c1-c1ncc2[nH]nc(Cc3ccc(-c4nc(C(F)(F)F)cn4C)cc3)c2n1` [Compound 144], the IC50 in experiment [1] was 100 to 250 nM; in experiment [2] it was no less than 10000 nM; in experiment [3] (MDA-MB-436, viability), 100 to 250 nM; in experiment [4], less than 30 nM.
In the case of `CC(C)n1cc(C(F)(F)F)nc1-c1ccc(Cc2c[nH]c3cnc(-c4c(OC(F)F)ncnc4C4CC4)nc23)cc1` [Compound 132], the IC50 in experiment [1] is less than 100 nM; in experiment [2], no less than 10000 nM; in experiment [3] (MDA-MB-436, viability) it was less than 100 nM; in experiment [4], less than 30 nM.
With `CC(C)c1ccccc1-c1cc2c(Oc3ccc(-c4nc(C(F)(F)F)cn4C)cc3)c[nH]c2cn1` [Compound 14, 5-(2-isopropylphenyl)-3-[4-[1-methyl-4-(trifluoromethyl)imidazol-2-yl]phenoxy]-1H-pyrrolo[2,3-c]pyridine], the IC50 was less than 100 nM in experiment [1]; no less than 10000 nM in experiment [2]; less than 100 nM in experiment [3] (MDA-MB-436, viability); less than 30 nM in experiment [4].
`COc1ncnc(C2CC2)c1-c1ncc2[nH]nc(Cc3ccc(-c4nc(C(F)(F)F)cn4C)c(F)c3)c2n1` [Compound 90, 5-(4-cyclopropyl-6-methoxypyrimidin-5-yl)-3-(3-fluoro-4-(1-methyl-4-(trifluoromethyl)-1H-imidazol-2-yl)benzyl)-1H-pyrazolo[4,3-d]pyrimidine]: the IC50 is less than 100 nM in experiment [1]; no less than 10000 nM in experiment [2]; less than 100 nM in experiment [3] (MDA-MB-436, viability); less than 30 nM in experiment [4].
Consider `[2H]C([2H])([2H])Oc1ncnc(C2CC2)c1-c1ncc2[nH]nc(Cc3ccc(-c4nc(C(F)(F)F)cn4C)cc3)c2n1` [Compound 163, 5-[4-cyclopropyl-6-(trideuteriomethoxy)pyrimidin-5-yl]-3-[[4-[1-methyl-4-(trifluoromethyl)imidazol-2-yl]phenyl]methyl]-1H-pyrazolo[4,3-d]pyrimidine], for which the IC50 is less than 100 nM in experiment [1]; no less than 10000 nM in experiment [2]; less than 100 nM in experiment [3] (MDA-MB-436, viability); less than 30 nM in experiment [4].
As for `COCc1[nH]c2cnc(-c3c(OC)ncnc3C3CC3)nc2c1Cc1ccc(-c2nc(C(F)(F)F)cn2C)cc1` [Compound 94, 2-(4-cyclopropyl-6-methoxy-pyrimidin-5-yl)-6-(methoxymethyl)-7-[[4-[1-methyl-4-(trifluoromethyl)imidazol-2-yl]phenyl]methyl]-5H-pyrrolo[3,2-d]pyrimidine], the IC50 in experiment [1] is less than 100 nM; in experiment [2] it was no less than 10000 nM; in experiment [3] (MDA-MB-436, viability) it was less than 100 nM; in experiment [4], less than 30 nM.
In the case of `COc1cccc(OC)c1-c1ncc2[nH]cc(Cc3ccc(-c4nc(C(F)(F)F)cn4C)cc3)c2n1` [Compound 194], the IC50 in experiment [1] was 250 to 10000 nM; in experiment [2], no less than 10000 nM; in experiment [3] (MDA-MB-436, viability), 100 to 250 nM; in experiment [4] it was 30 to 100 nM.
As for `Cn1cc(C(F)(F)F)nc1-c1ccc([C@@](C)(O)c2c[nH]c3cnc(-c4cccnc4OCC(F)(F)F)nc23)cc1` (single isomer, unassigned) [Compound 74], the IC50 in experiment [1] was 100 to 250 nM; in experiment [2], 250 to 10000 nM; in experiment [3] (MDA-MB-436, viability), 250 to 10000 nM; in experiment [4], less than 30 nM.
For the compound `CC(C)c1ccccc1-c1ncc2[nH]cc(C(O)c3ccc(-c4nc(C(F)(F)F)cn4C)cc3)c2n1` (stereo not drawn) [Compound 1, [2-(2-isopropylphenyl)-5H-pyrrolo[3,2-d]pyrimidin-7-yl]-[4-[1-methyl-4-(trifluoromethyl)imidazol-2-yl]phenyl]methanol], the IC50 in experiment [1] is less than 100 nM; in experiment [2], no less than 10000 nM; in experiment [3] (MDA-MB-436, viability), less than 100 nM; in experiment [4], 30 to 100 nM.
With `COc1nc(C)nc(C2CC2)c1-c1ncc2[nH]cc(Cc3ccc(-c4nc(C(F)(F)F)cn4C)cc3)c2n1` [Compound 142, 2-(4-cyclopropyl-6-methoxy-2-methylpyrimidin-5-yl)-7-(4-(1-methyl-4-(trifluoromethyl)-1H-imidazol-2-yl)benzyl)-5H-pyrrolo[3,2-d]pyrimidine], the IC50 was less than 100 nM in experiment [1]; no less than 10000 nM in experiment [2]; less than 100 nM in experiment [3] (MDA-MB-436, viability); 30 to 100 nM in experiment [4].
In the case of `CCn1cc(C(F)(F)F)nc1-c1ccc(Cc2c3nc(-c4c(OC)ncnc4C4CC4)ncc3nn2C)cc1` [Compound 139, 5-(4-cyclopropyl-6-methoxypyrimidin-5-yl)-3-(4-(1-ethyl-4-(trifluoromethyl)-1H-imidazol-2-yl)benzyl)-2-methyl-2H-pyrazolo[4,3-d]pyrimidine], the IC50 in experiment [1] is less than 100 nM; in experiment [2] it was no less than 10000 nM; in experiment [3] (MDA-MB-436, viability), less than 100 nM; in experiment [4], 30 to 100 nM.
Take `COc1ncnc(C2CC2)c1-c1cc2c(Cc3ccc(-c4nc(C(F)(F)F)cn4C)cc3)c[nH]c2cn1` [Compound 23, 5-(4-cyclopropyl-6-methoxy-pyrimidin-5-yl)-3-[[4-[1-methyl-4-(trifluoromethyl)imidazol-2-yl]phenyl]methyl]-1H-pyrrolo[2,3-c]pyridine]: the concentration for half-maximal inhibition (IC50) was less than 100 nM in experiment [1]; 250 to 10000 nM in experiment [2]; less than 100 nM in experiment [3] (MDA-MB-436, viability); less than 30 nM in experiment [4].
Regarding `COCCn1cc(Cc2ccc(-c3nc(C(F)(F)F)cn3C)cc2)c2nc(-c3ccccc3C(C)C)ncc21` [Compound 83, 2-(2-isopropylphenyl)-5-(2-methoxyethyl)-7-[[4-[1-methyl-4-(trifluoromethyl)imidazol-2-yl]phenyl]methyl]pyrrolo[3,2-d]pyrimidine], the IC50 was less than 100 nM in experiment [1]; no less than 10000 nM in experiment [2]; less than 100 nM in experiment [3] (MDA-MB-436, viability); less than 30 nM in experiment [4].
`COc1ncnc(C2CC2)c1-c1ncc2c(n1)c(Cc1ccc(-c3nc(C(F)(F)F)cn3C)cc1)nn2CC(F)(F)F` [Compound 190, 5-(4-cyclopropyl-6-methoxy-pyrimidin-5-yl)-3-[[4-[1-methyl-4-(trifluoromethyl)imidazol-2-yl]phenyl]methyl]-1-(2,2,2-trifluoroethyl)pyrazolo[4,3-d]pyrimidine]: the IC50 in experiment [1] is less than 100 nM; in experiment [2] it was no less than 10000 nM; in experiment [3] (MDA-MB-436, viability) it was less than 100 nM; in experiment [4], 30 to 100 nM.
As for `COc1ncnc(C2CC2)c1-c1ncc2nn(C(C)=O)c(Cc3ccc(-c4nc(C(F)(F)F)cn4C)cc3)c2n1` [Compound 101, 1-(5-(4-cyclopropyl-6-methoxypyrimidin-5-yl)-3-(4-(1-methyl-4-(trifluoromethyl)-1H-imidazol-2-yl)benzyl)-2H-pyrazolo[4,3-d]pyrimidin-2-yl)ethan-1-one], the IC50 is less than 100 nM in experiment [1], no less than 10000 nM in experiment [2], less than 100 nM in experiment [3] (viability) and 30 to 100 nM in experiment [4].
